Melting point and Ki data for 21 compounds are collected here from patent publication US8399674B2, “Quinolines” (Hoffman-La Roche Inc., priority 2007, dated 2013).

Data set [1] deals with T1, recombinant human 5-HT5A receptor (Homo sapiens, UniProt P47898).
T1 construct: expressed in transfected cells; host or cells: HEK-EBNA (Human Embryonic Kidney-EBNA) cells, transient transfection; membranes
As to the kind of experiment: [3H]LSD radioligand binding assay, membranes of HEK-EBNA cells transiently expressing the receptor. The conditions noted are these: [3H]LSD approx. 1 nM, 120 min room temperature, Ki from IC50 by Cheng-Prussoff equation, read-out: Ki (affinity towards the human 5-HT5A receptor). The procedure:
A [^3H] LSD radioligand binding assay was used to determine the affinity of the compounds for the recombinant human 5-HT5A receptor, in membranes from transiently (cDNA) expressed 5-HT5A receptors in Human Embryonic Kidney-EBNA (HEK-EBNA) cells.
Assay buffer consisted of Tris (50 mM) buffer containing 1 mM EGTA, 10 mM MgCl2 (pH 7.4) and 10 μM pargyline. The binding assay was carried out in 96-well-plates in the presence of [^3H]LSD (approximately 1 nM), approximately 2 μg/well of membrane protein, and 0.5 mg of Ysi-poly-1-lysine SPA beads in a final volume of 200 μl of buffer. Non-specific binding was defined using methiothepin 2 μM. Compounds were tested at 10 concentrations. All assays were conducted in duplicate and repeated at least two times. Assay plates were incubated for 120 min at room temperature before centrifugation. Bound ligand was determined using a Packard Topcount scintillation counter. IC50 values were calculated using a non-linear curve fitting program and Ki values calculated using the Cheng-Prussoff equation.

Each structure is given as a SMILES string.

As a reminder, the melting point is the temperature of the solid-liquid transition. Usually Ki stands for a dissociation constant, usually derived from enzyme kinetics or from competition with a known ligand.

T1 sequence (P47898 whole entry): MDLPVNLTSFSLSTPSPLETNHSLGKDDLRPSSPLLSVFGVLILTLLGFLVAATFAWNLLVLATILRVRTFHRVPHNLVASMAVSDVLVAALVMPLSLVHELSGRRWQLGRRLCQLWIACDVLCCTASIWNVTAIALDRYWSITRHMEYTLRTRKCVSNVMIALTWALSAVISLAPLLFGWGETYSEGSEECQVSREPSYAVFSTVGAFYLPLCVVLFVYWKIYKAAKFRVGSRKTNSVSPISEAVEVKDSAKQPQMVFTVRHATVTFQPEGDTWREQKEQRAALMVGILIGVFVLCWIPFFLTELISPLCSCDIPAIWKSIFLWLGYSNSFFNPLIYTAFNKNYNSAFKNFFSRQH

With `COc1ccccc1CNC(=O)c1ccc2nc(NCc3ccccc3OC)ccc2c1` [Example 76, 2-(2-Methoxy-benzylamino)-quinoline-6-carboxylic acid 2-methoxy-benzylamide], the melting point is 217 °C.

The compound `COc1ccccc1CNc1ccc2cc(Nc3ncccn3)ccc2n1` [Example 84, N2-(2-Methoxy-benzyl)-N6-pyrimidin-2-yl-quinoline-2,6-diamine] had a melting point of 175 °C.

Turning to `COc1ccccc1CNc1ccc2cc(Nc3nnc(C)o3)ccc2n1` [Example 85, N2-(2-Methoxy-benzyl)-N6-(5-methyl-[1,3,4]oxadiazol-2-yl)-quinoline-2,6-diamine], the melting point came to 183 °C.

In turn, `COc1ccccc1CNc1ccc2cc(Nc3nc(C)no3)ccc2n1` [Example 86, N2-(2-Methoxy-benzyl)-N6-(3-methyl-[1,2,4]oxadiazol-5-yl)-quinoline-2,6-diamine] displayed a melting point of 175 °C.

For `CCn1nnc(Nc2ccc3nc(NCc4ccccc4OC)ccc3c2)n1` [Example 87, N6-(2-Ethyl-2H-tetrazol-5-yl)-N2-(2-methoxy-benzyl)-quinoline-2,6-diamine], the melting point is 190 °C. In addition, in data set [1], the Ki came out at 44 nM.

`COc1ccccc1CNc1ccc2cc(Nc3cc(C)on3)ccc2n1` [Example 88, N2-(2-Methoxy-benzyl)-N6-(5-methyl-isoxazol-3-yl)-quinoline-2,6-diamine] displayed a melting point of 132 °C. The Ki in data set [1] is 26 nM.

In turn, `COc1ccccc1CNc1ccc2cc(Nc3nc(C)cc(C)n3)ccc2n1` [Example 89, N6-(4,6-Dimethyl-pyrimidin-2-yl)-N2-(2-methoxy-benzyl)-quinoline-2,6-diamine] had a melting point of 157.5 °C.

Compound `COc1ccccc1CNc1ccc2cc(Nc3nccc(C)n3)ccc2n1` [Example 90, N2-(2-Methoxy-benzyl)-N6-(4-methyl-pyrimidin-2-yl)-quinoline-2,6-diamine] displayed a melting point of 125 °C. Also, the Ki in data set [1] stood at 33 nM.

In turn, `COc1ccccc1CNc1ccc2cc(Nc3ncccc3C)ccc2n1` [Example 91, N2-(2-Methoxy-benzyl)-N6-(3-methyl-pyridin-2-yl)-quinoline-2,6-diamine] showed a melting point of 163 °C.

`COc1ccccc1CNc1ccc2cc(Nc3ccccn3)ccc2n1` [Example 92, N2-(2-Methoxy-benzyl)-N6-pyridin-2-yl-quinoline-2,6-diamine] showed a melting point of 134 °C. The Ki in data set [1] was 34 nM.

The compound `COc1ccccc1CNc1ccc2cc(Nc3cccc(C)n3)ccc2n1` [Example 93, N2-(2-Methoxy-benzyl)-N6-(6-methyl-pyridin-2-yl)-quinoline-2,6-diamine] came in with a melting point of 134 °C.

`COc1ccccc1CNc1ccc2cc(Nc3nccc(C(F)(F)F)n3)ccc2n1` [Example 94, N2-(2-Methoxy-benzyl)-N6-(4-trifluoromethyl-pyrimidin-2-yl)-quinoline-2,6-diamine] gave a melting point of 114 °C. In addition, the Ki in data set [1] amounted to 30 nM.

In turn, `COc1ccccc1CNc1ccc2cc(Nc3nnn(C(C)(C)C)n3)ccc2n1` [Example 95, N6-(2-tert-Butyl-2H-tetrazol-5-yl)-N2-(2-methoxy-benzyl)-quinoline-2,6-diamine] gave a melting point of 156 °C.

Compound `COc1ccccc1CNc1ccc2cc(Nc3nnc(C4CC4)o3)ccc2n1` [Example 96, N6-(5-Cyclopropyl-[1,3,4]oxadiazol-2-yl)-N2-(2-methoxy-benzyl)-quinoline-2,6-diamine] had a melting point of 199 °C. Further, the Ki in data set [1] turned out to be 47 nM.

On to `COc1ccccc1CNc1ccc2cc(Nc3nnc(C(F)(F)F)o3)ccc2n1` [Example 97, N2-(2-Methoxy-benzyl)-N6-(5-trifluoromethyl-[1,3,4]oxadiazol-2-yl)-quinoline-2,6-diamine], for which the melting point was 198 °C.

Compound `COc1ccccc1CNc1ccc2cc(Nc3nc(C(F)(F)F)co3)ccc2n1` [Example 98, N2-(2-Methoxy-benzyl)-N6-(4-trifluoromethyl-oxazol-2-yl)-quinoline-2,6-diamine] came in with a melting point of 144 °C.

In turn, `COc1ccccc1CNc1ccc2cc(Nc3ncc(C(F)(F)F)o3)ccc2n1` [Example 99, N2-(2-Methoxy-benzyl)-N6-(5-trifluoromethyl-oxazol-2-yl)-quinoline-2,6-diamine] yielded a melting point of 166 °C.

`COc1ccccc1CNc1ccc2cc(Nc3ncco3)ccc2n1` [Example 100, N2-(2-Methoxy-benzyl)-N6-oxazol-2-yl-quinoline-2,6-diamine] returned a melting point of 205 °C.

Compound `COc1ccccc1CNc1ccc2cc(Nc3cccc(C(F)(F)F)n3)ccc2n1` [Example 101, N2-(2-Methoxy-benzyl)-N6-(6-trifluoromethyl-pyridin-2-yl)-quinoline-2,6-diamine] returned a melting point of 151 °C.

`COc1ccccc1CNc1ccc2cc(Nc3nc4cc(C)ccc4o3)ccc2n1` [Example 102, N2-(2-Methoxy-benzyl)-N6-(5-methyl-benzooxazol-2-yl)-quinoline-2,6-diamine] gave a melting point of 220 °C.

As for `COc1ccccc1CNc1ccc2cc(Nc3cccc(CCO)c3)ccc2n1` [Example 103, 2-{3-[2-(2-Methoxy-benzylamino)-quinolin-6-ylamino]-phenyl}-ethanol], the inhibition constant Ki in data set [1] came to 25 nM.
